Reference: patent US20110178053A1, “AZACARBOLINE DERIVATIVES, PREPARATION METHOD THEREOF AND THERAPEUTIC USE OF SAME” (SANOFI-AVENTIS, priority 2008, published 2011)
pEC50, pIC50: −log10 of the molar value.

Tests used:
Pim-1 = molecular target: T1, Pim-1 (Homo sapiens, UniProt P11309); assay: TR-FRET assay, Pim-1 kinase (phosphorylation of Bad Ser112); assay type: biochemical; details: TR-FRET; ATP 40 μM; read-out: IC50 Pim1
T1 construct: His6-labelled recombinant full-length human Pim-1, Pim-2 or Pim-3 protein; His6; made in house
How it was run: (§1)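 For each of Pim-1, Pim-2 and Pim-3 (His6-tagged full-length human), compounds were titrated over 10 concentrations in duplicate, typically from 30 μM, with ATP at 40 μM, equal to apparent KM. Bad Ser112 phosphorylation was read as the 665/615 nm TR-FRET ratio and IC50 fitted by 4-parameter logistic model.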

KG-1a = assay: Cell viability assay (CellTiter-Blue), KG-1a; assay type: cell-based; details: Homo sapiens; KG-1a cells; cell proliferation/viability; read-out: EC50 KG-1a μM (leukaemia)
Text: (§2) The representative compounds of the invention are also screened as regards their effects on cell proliferation and viability using a variety of human tumour cell lines, which are representative of various pathological indications. These cell lines include: • Models of haematological cancers: • TF-1 (acute myelogenic leukaemia; AML M6 at the time of diagnosis); • KG-1 (AML; erythroleukaemia evolving into AML); • KG-1a (AML; sub-clone derived from immature KG-1); • EOL-1 (AML; eosinophilic leukaemia); • PL-21 (AML; M3); • ML-2 (AML; T-NHL evolving into T-ALL evolving into AML M4); • HL-60 (AML, M3); • Kasumi-1 (AML); • GDM-1 (AML); • K-562 (CML—chronic myelogenic leukaemia; blastic crisis); • JURL-MK1 (CML; blastic crisis); • DND-41 (T-ALL—-cell acute lymphoblastic leukaemia); • Jurkat (T-ALL); NALM-6 (B-ALL—B-cell ALL); • CEM (ALL; lymphosarcoma evolving into ALL); • Jeko-1 (B-NHL—B-cell non-Hodgkin lymphoma; mantle-cell lymphoma derived from a variant with large cells as a leukaemic transformation); • WSU-DLCL2 (B-NHL; large B-cell diffuse lymphoma); • RL (B-NHL; undifferentiated diffuse); • OCI-Ly10 (B-NHL); • DoHH-2 (B-NHL); • RPMI-8226 (MM—multiple myeloma); • JVM-2 (B-CLL—B-cell chronic lymphocytic leukaemia); and • JVM-3 (B-CLL) • MV4-11 (AML) • MOLM13 (AML). • Solid tumour models: • HCT-116 (bowel cancer); • HT-29 (bowel cancer); • HC-15 (bowel cancer); • H460 (lung cancer; non-small-cell lung cancer); • A375 (melanoma); • B16F10 (melanoma); • MDA-A1 (breast cancer); • MDA-MB231 (breast cancer); • MDA-MB231 adr (breast cancer); • PANC-1 (pancreatic cancer); and • PC-3 (prostate cancer).
(§3) In order to measure the viability, the tumour cells are incubated in a 96-well or 384-well format for 48, 72 or 96 hours, preferably 72 hours, with a compound of the invention at dilutions of a factor 3 with, in general, nine doses in total, the highest dose being equal to 10 μM or 30 μM. The cell viability is evaluated by adding CellTiter-Blue® (Promega, Madison, Wis., United States) for 4 hours and end-point readings are taken using a SpectraMax Genmini EM (Molecular Devices, Sunnyvale, Calif., United States). The CellTiter-Blue® cell viability assay measures the ability of the cells in culture to reduce resazurin to resorufin, the fluorescence signal intensity being directly proportional to the number of live cells.

Pim-2 = molecular target: T2, Pim-2 (Homo sapiens, UniProt Q9P1W9); assay: TR-FRET assay, Pim-2 kinase (phosphorylation of Bad Ser112); assay type: biochemical; details: TR-FRET; ATP 40 μM; read-out: IC50 Pim2
T2 construct: His6-labelled recombinant full-length human Pim-1, Pim-2 or Pim-3 protein; His6; made in house
How it was run: as §1

Pim-3 = molecular target: T3, Pim-3 (Homo sapiens, UniProt Q86V86); assay: TR-FRET assay, Pim-3 kinase (phosphorylation of Bad Ser112); assay type: biochemical; details: TR-FRET; ATP 40 μM; read-out: IC50 Pim3
T3 construct: His6-labelled recombinant full-length human Pim-1, Pim-2 or Pim-3 protein; His6; made in house
How it was run: as §1

PLK1 = PLK1 (Homo sapiens, UniProt P53350); assay: PLK1 biochemical inhibition
MV4-11 = assay: Cell viability assay (CellTiter-Blue), MV4-11; assay type: cell-based; details: Homo sapiens; MV4-11 cells; cell proliferation/viability; read-out: IC50 MV4-11 μM (myeloma)
Text: as §2, §3

EOL-1 = assay: Cell viability assay (CellTiter-Blue), EOL-1; assay type: cell-based; details: Homo sapiens, EOL1, read-out: EC50 EOL-1 μM (lymphoma); EOL-1 cells; cell proliferation/viability
Text: as §2, §3

H460 = assay: Cell viability assay (CellTiter-Blue), H460; assay type: cell-based; details: Homo sapiens, NCI-H460; H460 cells; cell proliferation/viability; read-out: EC50 H460 μM (lung)
Experimental: (§4) The representative compounds of the invention are also screened as regards their effects on cell proliferation and viability using a variety of human tumour cell lines, which are representative of various pathological indications. […]
as §3

PI3K = PI3K biochemical inhibition
B16F10 = assay: Cell viability assay (CellTiter-Blue), B16F10; assay type: cell-based, human; details: Mus musculus, B16-F10; B16F10 cells; cell proliferation/viability; read-out: EC50 B16F10 μM (melanoma)
Experimental: as §4, §3

MOLM-13 = assay: Cell viability assay (CellTiter-Blue), MOLM-13; assay type: cell-based; details: Homo sapiens; MOLM-13 cells; cell proliferation/viability; read-out: IC50 MOLM-13 μM (myeloma)
Text: as §2, §3

HCT116 = assay: Cell viability assay (CellTiter-Blue), HCT116; assay type: cell-based; details: Homo sapiens, HCT-116; HCT116 cells; cell proliferation/viability; read-out: EC50 HCT116 μM (bowel)
Experimental: as §4, §3

T2 sequence (Q9P1W9 whole entry): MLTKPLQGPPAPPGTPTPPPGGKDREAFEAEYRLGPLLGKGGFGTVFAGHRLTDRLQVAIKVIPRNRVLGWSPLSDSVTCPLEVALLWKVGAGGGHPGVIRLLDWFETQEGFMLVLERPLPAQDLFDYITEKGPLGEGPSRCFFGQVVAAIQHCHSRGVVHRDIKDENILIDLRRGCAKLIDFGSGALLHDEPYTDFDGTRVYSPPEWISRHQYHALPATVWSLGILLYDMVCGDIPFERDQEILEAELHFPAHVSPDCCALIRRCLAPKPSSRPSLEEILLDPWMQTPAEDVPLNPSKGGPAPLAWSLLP
T1 sequence (P11309 whole entry): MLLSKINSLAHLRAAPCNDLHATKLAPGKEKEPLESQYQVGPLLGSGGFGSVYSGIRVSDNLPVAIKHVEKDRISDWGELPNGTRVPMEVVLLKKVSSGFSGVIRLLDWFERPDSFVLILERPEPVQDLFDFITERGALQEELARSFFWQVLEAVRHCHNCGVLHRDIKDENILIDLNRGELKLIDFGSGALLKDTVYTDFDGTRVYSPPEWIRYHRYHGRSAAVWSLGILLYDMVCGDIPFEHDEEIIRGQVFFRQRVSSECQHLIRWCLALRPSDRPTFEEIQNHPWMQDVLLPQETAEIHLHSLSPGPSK
Sequence of PLK1 (P53350 whole entry, species assumed): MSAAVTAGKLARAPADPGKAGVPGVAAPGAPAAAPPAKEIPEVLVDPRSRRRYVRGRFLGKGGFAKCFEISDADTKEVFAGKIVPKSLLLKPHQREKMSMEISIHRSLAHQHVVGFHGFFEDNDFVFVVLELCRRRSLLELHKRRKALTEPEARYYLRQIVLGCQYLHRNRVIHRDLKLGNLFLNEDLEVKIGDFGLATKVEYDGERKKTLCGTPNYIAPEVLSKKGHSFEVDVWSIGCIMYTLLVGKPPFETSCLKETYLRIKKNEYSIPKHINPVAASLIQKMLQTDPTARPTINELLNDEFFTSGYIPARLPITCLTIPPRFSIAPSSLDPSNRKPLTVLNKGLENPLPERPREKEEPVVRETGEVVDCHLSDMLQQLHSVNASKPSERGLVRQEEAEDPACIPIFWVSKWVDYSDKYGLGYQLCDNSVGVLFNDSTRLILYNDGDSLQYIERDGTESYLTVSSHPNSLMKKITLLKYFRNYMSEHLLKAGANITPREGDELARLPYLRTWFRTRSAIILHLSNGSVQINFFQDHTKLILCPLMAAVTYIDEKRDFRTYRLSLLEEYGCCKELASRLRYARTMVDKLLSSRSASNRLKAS

SMILES | pIC50 (Pim-1) | pIC50 (Pim-2) | pIC50 (Pim-3) | pIC50 (PLK1) | pIC50 (MV4-11) | pEC50 (H460) | pIC50 (PI3K) | pEC50 (B16F10) | pIC50 (MOLM-13) | pEC50 (HCT116) | EC50 (KG-1a) | pEC50 (EOL-1)
CC(C)(C)OC(=O)c1cnc2[nH]c3cnc(-c4cccnc4)cc3c2c1 [Example 5, 2-methylpropan-2-yl 6-(pyrid-3-yl)-9H-pyrrolo[2,3-b:5,4-c′]dipyridine-3-carboxylate] | 7.00 to 9.00 | < 5.30 | 6.00 to 7.00 | < 5.30 | 6.00 to 7.00 |  |  |  |  |  | 0.1 to 1 µM | 6.00 to 7.00
CC(C)(CO)COC(=O)c1cnc2[nH]c3cnc(-c4cccnc4)cc3c2c1 [Example 15, 3-hydroxy-2,2-dimethylpropyl 6-(pyrid-3-yl)-9H-pyrrolo[2,3-b:5,4-c′]-dipyridine-3-carboxylate] | 7.00 to 9.00 | 6.00 to 7.00 | 7.00 to 9.00 | < 5.30 | 6.00 to 7.00 |  |  |  |  |  | 0.1 to 1 µM | 6.00 to 7.00
CS(=O)(=O)Nc1ccc(-c2c(F)cnc3[nH]c4cnc(-c5cccnc5)cc4c23)cc1 [Example 22, N-[4-(3-Fluoro-6-(pyrid-3-yl)-9H-pyrrolo[2,3-b:5,4-c′]dipyrid-4-yl)-phenyl]methanesulfon-amide] | 7.00 to 9.00 | 6.00 to 7.00 | 7.00 to 9.00 | 7.00 to 9.00 | 7.00 to 9.00 | 7.00 to 9.00 | 6.00 to 7.00 | 7.00 to 9.00 | 7.00 to 9.00 | 7.00 to 9.00 |  | 7.00 to 9.00
Cn1cc(-c2cc3c(cn2)[nH]c2ncccc23)cn1 [Example 39, 6-(1-Methyl-1H-pyrazol-4-yl)-9H-pyrrolo[2,3-b:5,4-c′]dipyridine] | 7.00 to 9.00 | 5.30 to 6.00 | 6.00 to 7.00 | 5.30 to 6.00 | 5.30 to 6.00 |  |  |  | 5.30 to 6.00 |  | 0.1 to 1 µM | 6.00 to 7.00
COc1cnc2[nH]c3cnc(-c4cccnc4)cc3c2c1-c1ccc(NS(C)(=O)=O)cc1 [Example 44, N-[4-(3-methoxy-6-(pyrid-3-yl)-9H-pyrrolo[2,3-b:5,4-c′]dipyrid-4-yl)phenyl]methane-sulfonamide] | 7.00 to 9.00 | 7.00 to 9.00 | 7.00 to 9.00 | 7.00 to 9.00 | 7.00 to 9.00 |  | 7.00 to 9.00 |  | 7.00 to 9.00 |  |  | 7.00 to 9.00

The next lines start with results.

pIC50 (Pim-1) | pIC50 (Pim-2) | pIC50 (Pim-3) | pIC50 (PLK1) | pIC50 (MV4-11) | pEC50 (H460) | pIC50 (PI3K) | pEC50 (B16F10) | pIC50 (MOLM-13) | pEC50 (HCT116) | SMILES | EC50 (KG-1a) | pEC50 (EOL-1)
7.00 to 9.00 | 5.30 to 6.00 | 6.00 to 7.00 | 6.00 to 7.00 | 5.30 to 6.00 |  |  |  |  |  | c1cncc(-c2cc3c(cn2)[nH]c2ncccc23)c1 [Example 1, 6-pyrid-3-yl-9H-pyrrolo[2,3-b:5,4-c′]dipyridine] | 1 to 5 µM | 5.30 to 6.00
7.00 to 9.00 | 5.30 to 6.00 | 7.00 to 9.00 | 6.00 to 7.00 | 6.00 to 7.00 |  |  |  |  |  | CCCN(C)c1cnc2[nH]c3cnc(-c4cccnc4)cc3c2c1 [Example 10, N-methyl-N-propyl-6-(pyrid-3-yl)-9H-pyrrolo[2,3-b:5,4-c′]dipyrid-3-amine] | 0.1 to 1 µM | 6.00 to 7.00
7.00 to 9.00 | 5.30 to 6.00 | 7.00 to 9.00 | < 5.30 | 6.00 to 7.00 |  |  |  |  |  | c1cncc(-c2cc3c(cn2)[nH]c2ncc(N4CCOCC4)cc23)c1 [Example 14, 3-(morpholin-4-yl)-6-(pyrid-3-yl)-9H-pyrrolo[2,3-b:5,4-c′]dipyridine] | 1 to 5 µM | 6.00 to 7.00
